# System: Peyer's patch cells
# Assay: Production of IgA, IgG and cytokines by Peyer's patch cells of mice fed lactosucrose (Experiment 3)
# Type: in vivo
# Settings: for IFN-γ produced by Peyer's patch cells / IL-4 produced by Peyer's patch cells / IL-6 produced by Peyer's patch cells / IgA produced by Peyer's patch cells / IgG produced by Peyer's patch cells / TGF-β produced by Peyer's patch cells / IL-10 produced by Peyer's patch cells: four weeks
# Protocol: In order to investigate what type of immunopathologically-mediated tissue exerts the enhancing effect on gut immunity, the amounts of IgA, IgG, and various cytokines were measured. Similarly as in Experiment 1, female BALB/c mice (six weeks old) were preliminary reared for one week on “AIN-93G”, the same standard purified diet as used in Experiment 1. Successively, “LS-90P”, a saccharide composition comprising 91.8% (w/w), on a dry solid basis, of lactosucrose commercialized by ENSUIKO Sugar Refining Co., Ltd., Tokyo, Japan, was incorporated into the above purified diet, in which corn starch equal to the amount of the saccharide composition comprising lactosucrose had been removed, to give a lactosucrose content of 2% (w/w) or 5% (w/w), and five mice/group were allowed to ingest the resulting test diet freely. Mice, allowed to ingest “AIN-93G”, as the standard purified diet, were used as control. At four weeks after starting the administration of the test diet, Peyer's patch and intestinal lymph nodes were respectively removed from the mice and cut using a scissor. Then, the resultants were respectively treated in 0.2% (w/v) aqueous collagenase solution at 37° C. for 30 min, and filtrated using a cell strainer to obtain cell suspensions. Each cell suspension was centrifuged to collect cells and the resulting cells were suspended into a 45% (v/v) solution of “PERCOLL”, commercialized by GE Healthcare, to make into a cell suspension. Each resulting suspension was successively placed on a 75% (v/v) “PERCOLL” solution and centrifuged at 1,000×g for 10 min. Cells in a boundary phase between 45% (v/v) and 75% (v/v) “PERCOLL” solution were collected and suspended in RPMI1640 medium comprising 10% FCS and 10 mM HEPES, and the cell concentration was adjusted to 1×10^6 cells/ml. The resulting cell suspension was placed in a 24-well plate to give one ml/well each. Then, 2 μg/ml of Concanavaline A (Con A) as a stimulator to T-cell or 10 μg/ml of lipopolysaccharide (LPS) as a stimulator to B-cell and macrophage cell was admixed with the cell suspension, and then the cells were cultured at 37° C. for 48 hours using 5% (v/v) carbon dioxide gas. A culture supernatant was collected from each well, and the amounts of IgA, IgG, IFN-γ, interleukin-4 (IL-4), IL-6, interleukin-10 (IL-10), and TGF-β were measured by ELISA using an anti-mouse IgA antibody, anti-mouse IgG antibody, anti-mouse IFN-γ antibody (commercialized by Pepro Tech EC. Ltd.), anti-mouse IL-4 antibody (commercialized by R&D Systems), anti-mouse IL-6 antibody (commercialized by R&D Systems), anti-mouse IL-10 antibody (commercialized by R&D Systems), and anti-mouse TGF-β antibody (commercialized by Promega Co., Wisconsin, USA), and the average values of those from five mice were determined. The results for Peyer's patch cells and intestinal lymph node cells are respectively in Tables 3 and 4. The percentages in parentheses in the tables mean a relative value to the amount of IgA, IgG, IFN-γ, IL-4, IL-6, IL-10 or TGF-β produced by Peyer's patch cells or intestinal lymph node cells from the control mice.
# [1] = Lactosucrose 2% (w/w) diet, Con A
# [2] = Lactosucrose 2% (w/w) diet, LPS
# [3] = Lactosucrose 5% (w/w) diet, Con A
# [4] = Lactosucrose 5% (w/w) diet, LPS
smiles,measurement,setting,value
"OC[C@H]1O[C@@H](O[C@H]2[C@H](O)[C@@H](O)[C@@H](O[C@]3(CO)O[C@H](CO)[C@@H](O)[C@@H]3O)O[C@@H]2CO)[C@H](O)[C@@H](O)[C@H]1O [Lactosucrose, β-D-galactosyl-(1,4)-α-D-glucosyl-(1,2)-β-D-fructoside]",IFN-γ produced by Peyer's patch cells,[1],11 ± 5.0 ng/mL
same,IL-4 produced by Peyer's patch cells,[1],22 ± 0.58 pg/mL
same,IL-6 produced by Peyer's patch cells,[1],35 ± 14 pg/mL
same,IgA produced by Peyer's patch cells,[1],1.9 ± 0.49 µg/mL
same,IgG produced by Peyer's patch cells,[1],110 ± 28 ng/mL
same,TGF-β produced by Peyer's patch cells,[1],0.40 ± 0.24 ng/mL
same,IL-10 produced by Peyer's patch cells,"Lactosucrose 2% (w/w) diet, Con A, DL: Detection limit",Below DL*
same,IFN-γ produced by Peyer's patch cells,[2],1.2 ± 0.44 ng/mL
same,IL-4 produced by Peyer's patch cells,[2],15 ± 1.6 pg/mL
same,IL-6 produced by Peyer's patch cells,[2],250 ± 27 pg/mL
same,IL-10 produced by Peyer's patch cells,[2],200 ± 57 pg/mL
same,IgA produced by Peyer's patch cells,[2],1.9 ± 1.8 µg/mL
same,IgG produced by Peyer's patch cells,[2],110 ± 90 ng/mL
same,TGF-β produced by Peyer's patch cells,[2],1.3 ± 0.20 ng/mL
same,"IFN-γ produced by Peyer's patch cells, relative value to control","Lactosucrose 2% (w/w), Con A",(100%)
same,"IL-4 produced by Peyer's patch cells, relative value to control","Lactosucrose 2% (w/w), Con A",(105%)
same,"IL-6 produced by Peyer's patch cells, relative value to control","Lactosucrose 2% (w/w), Con A",(106%)
same,"IgA produced by Peyer's patch cells, relative value to control","Lactosucrose 2% (w/w), Con A",(127%)
same,"IgG produced by Peyer's patch cells, relative value to control","Lactosucrose 2% (w/w), Con A",(151%)
same,"TGF-β produced by Peyer's patch cells, relative value to control","Lactosucrose 2% (w/w), Con A",(133%)
same,"IFN-γ produced by Peyer's patch cells, relative value to control","Lactosucrose 2% (w/w), LPS",(146%)
same,"IL-4 produced by Peyer's patch cells, relative value to control","Lactosucrose 2% (w/w), LPS",(107%)
same,"IL-6 produced by Peyer's patch cells, relative value to control","Lactosucrose 2% (w/w), LPS",(114%)
same,"IL-10 produced by Peyer's patch cells, relative value to control","Lactosucrose 2% (w/w), LPS",(95%)
same,"IgA produced by Peyer's patch cells, relative value to control","Lactosucrose 2% (w/w), LPS",(216%)
same,"IgG produced by Peyer's patch cells, relative value to control","Lactosucrose 2% (w/w), LPS",(244%)
same,"TGF-β produced by Peyer's patch cells, relative value to control","Lactosucrose 2% (w/w), LPS",(100%)
same,IFN-γ produced by Peyer's patch cells,[3],21 ± 13 ng/mL
same,IL-4 produced by Peyer's patch cells,[3],20 ± 0.74 pg/mL
same,IL-6 produced by Peyer's patch cells,[3],84 ± 39 pg/mL
same,IgA produced by Peyer's patch cells,[3],4.5 ± 2.6 µg/mL
same,IgG produced by Peyer's patch cells,[3],270 ± 120 ng/mL
same,TGF-β produced by Peyer's patch cells,[3],0.66 ± 0.13 ng/mL
same,IL-10 produced by Peyer's patch cells,"Lactosucrose 5% (w/w) diet, Con A, DL: Detection limit",Below DL*
same,IFN-γ produced by Peyer's patch cells,[4],3.0 ± 2.1 ng/mL
same,IL-4 produced by Peyer's patch cells,[4],14 ± 0.88 pg/mL
same,IL-6 produced by Peyer's patch cells,[4],470 ± 250 pg/mL
same,IL-10 produced by Peyer's patch cells,[4],160 ± 56 pg/mL
same,IgA produced by Peyer's patch cells,[4],7.0 ± 4.0 µg/mL
same,IgG produced by Peyer's patch cells,[4],370 ± 150 ng/mL
same,TGF-β produced by Peyer's patch cells,[4],1.2 ± 0.090 ng/mL
same,"IFN-γ produced by Peyer's patch cells, relative value to control","Lactosucrose 5% (w/w), Con A",(191%)
same,"IL-4 produced by Peyer's patch cells, relative value to control","Lactosucrose 5% (w/w), Con A",(95%)
same,"IL-6 produced by Peyer's patch cells, relative value to control","Lactosucrose 5% (w/w), Con A",(255%)
same,"IgA produced by Peyer's patch cells, relative value to control","Lactosucrose 5% (w/w), Con A",(300%)
same,"IgG produced by Peyer's patch cells, relative value to control","Lactosucrose 5% (w/w), Con A",(370%)
same,"TGF-β produced by Peyer's patch cells, relative value to control","Lactosucrose 5% (w/w), Con A",(220%)
same,"IFN-γ produced by Peyer's patch cells, relative value to control","Lactosucrose 5% (w/w), LPS",(366%)
same,"IL-4 produced by Peyer's patch cells, relative value to control","Lactosucrose 5% (w/w), LPS",(100%)
same,"IL-6 produced by Peyer's patch cells, relative value to control","Lactosucrose 5% (w/w), LPS",(214%)
same,"IL-10 produced by Peyer's patch cells, relative value to control","Lactosucrose 5% (w/w), LPS",(76%)
same,"IgA produced by Peyer's patch cells, relative value to control","Lactosucrose 5% (w/w), LPS",(795%)
same,"IgG produced by Peyer's patch cells, relative value to control","Lactosucrose 5% (w/w), LPS",(822%)
same,"TGF-β produced by Peyer's patch cells, relative value to control","Lactosucrose 5% (w/w), LPS",(92%)
